Assay results from the NIST ThermoML archive (doi:10.1016/j.fluid.2016.02.004).
± gives the expanded uncertainty stated by the source.

Assay: activity coefficient (dimensionless); of the first substance listed, at infinite dilution; xn = mol fraction of the nth substance listed
Settings: 348.15 K; Liquid; Chromatography; x1 = 0

Going from `Cc1ccccc1C` [1,2-dimethylbenzene] + CCCCn1cc[n+](C)c1.N#CN=C=[N-] to `Cc1cccc(C)c1` [1,3-dimethylbenzene] + CCCCn1cc[n+](C)c1.N#CN=C=[N-], the activity coefficient rises from 4.27 ± 0.29 to 5.19 ± 0.35.

First: Cc1ccc(C)cc1 [1,4-dimethylbenzene] + CCCCn1cc[n+](C)c1.N#CN=C=[N-]
Second: C=C(C)c1ccccc1 [(1-methylethenyl)benzene] + CCCCn1cc[n+](C)c1.N#CN=C=[N-]
The activity coefficient of the first is higher: 5 ± 0.34 for the first, 4.02 ± 0.27 for the second.

Going from `C1COCCO1` [1,4-dioxane] + CCCCn1cc[n+](C)c1.N#CN=C=[N-] to `C1CCCC1` [cyclopentane] + CCCCn1cc[n+](C)c1.N#CN=C=[N-], the activity coefficient rises from 1.28 ± 0.08 to 15.9 ± 1.1.

Going from `C=CCCCCCCCC` [1-decene] + CCCCn1cc[n+](C)c1.N#CN=C=[N-] to `C=CCCCCC` [1-heptene] + CCCCn1cc[n+](C)c1.N#CN=C=[N-], the activity coefficient falls from 119 ± 8 to 37.7 ± 2.6.

First: C#CCCCCC [1-heptyne] + CCCCn1cc[n+](C)c1.N#CN=C=[N-]
Second: C#CCCCCCC [1-octyne] + CCCCn1cc[n+](C)c1.N#CN=C=[N-]
The activity coefficient of the first is lower: 9.42 ± 0.64 for the first, 13.9 ± 1 for the second.

Going from `C#CCCCC` [1-hexyne] + CCCCn1cc[n+](C)c1.N#CN=C=[N-] to `C#CCCC` [1-pentyne] + CCCCn1cc[n+](C)c1.N#CN=C=[N-], the activity coefficient falls from 6.49 ± 0.44 to 4.38 ± 0.3.

First: CCC[N+](=O)[O-] [1-nitropropane] + CCCCn1cc[n+](C)c1.N#CN=C=[N-]
Second: CCCC=O [butanal] + CCCCn1cc[n+](C)c1.N#CN=C=[N-]
The activity coefficient of the first is lower: 1.41 ± 0.09 for the first, 1.8 ± 0.12 for the second.

First: C=CCCC [1-pentene] + CCCCn1cc[n+](C)c1.N#CN=C=[N-]
Second: CCCCO [butan-1-ol] + CCCCn1cc[n+](C)c1.N#CN=C=[N-]
The activity coefficient of the first is higher: 17.3 ± 1.2 for the first, 1.13 ± 0.07 for the second.

Going from `CC(C)CC(C)(C)C` [2,2,4-trimethylpentane] + CCCCn1cc[n+](C)c1.N#CN=C=[N-] to `CCC(C)(C)C` [2,2-dimethylbutane] + CCCCn1cc[n+](C)c1.N#CN=C=[N-], the activity coefficient falls from 96.5 ± 6.6 to 48.7 ± 3.3.

Going from `CCOC(C)(C)C` [2-ethoxy-2-methylpropane] + CCCCn1cc[n+](C)c1.N#CN=C=[N-] to `COC(C)(C)C` [2-methoxy-2-methylpropane] + CCCCn1cc[n+](C)c1.N#CN=C=[N-], the activity coefficient falls from 19.1 ± 1.3 to 8.14 ± 0.56.

Compared with `CCC(C)(C)OC` [2-methoxy-2-methylbutane] + CCCCn1cc[n+](C)c1.N#CN=C=[N-], `CC(C)(C)O` [2-methylpropan-2-ol] + CCCCn1cc[n+](C)c1.N#CN=C=[N-] is lower in activity coefficient: 11.8 ± 0.8 for the first, 1.19 ± 0.08 for the second.

`CC(C)CO` [2-methyl-1-propanol] + CCCCn1cc[n+](C)c1.N#CN=C=[N-] and `CCC(C)O` (centres undefined) [butan-2-ol] + CCCCn1cc[n+](C)c1.N#CN=C=[N-] are within error of each other in activity coefficient: 1.09 ± 0.07 for the first, 1.17 ± 0.07 for the second.

Compared with `CCC(C)CC` [3-methylpentane] + CCCCn1cc[n+](C)c1.N#CN=C=[N-], `CCOCC` [diethyl ether] + CCCCn1cc[n+](C)c1.N#CN=C=[N-] is lower in activity coefficient: 48.4 ± 3.3 for the first, 7.53 ± 0.51 for the second.

First: CC(C)=O [acetone] + CCCCn1cc[n+](C)c1.N#CN=C=[N-]
Second: CC(C)OC(C)C [diisopropyl ether] + CCCCn1cc[n+](C)c1.N#CN=C=[N-]
The activity coefficient of the first is lower: 1.16 ± 0.07 for the first, 21.5 ± 1.5 for the second.

Going from `CC#N` [acetonitrile] + CCCCn1cc[n+](C)c1.N#CN=C=[N-] to `CCCOCCC` [dipropyl ether] + CCCCn1cc[n+](C)c1.N#CN=C=[N-], the activity coefficient rises from 0.876 ± 0.056 to 20.5 ± 1.4.

Compared with `c1ccccc1` [benzene] + CCCCn1cc[n+](C)c1.N#CN=C=[N-], `C1=CCCCC1` [cyclohexene] + CCCCn1cc[n+](C)c1.N#CN=C=[N-] is higher in activity coefficient: 2.11 ± 0.14 for the first, 11.3 ± 0.8 for the second.

Going from `C1CCCCCC1` [cycloheptane] + CCCCn1cc[n+](C)c1.N#CN=C=[N-] to `C1CCCCCCC1` [cyclooctane] + CCCCn1cc[n+](C)c1.N#CN=C=[N-], the activity coefficient rises from 29.1 ± 2 to 37.1 ± 2.5.

Compared with `C1CCCCC1` [cyclohexane] + CCCCn1cc[n+](C)c1.N#CN=C=[N-], `CCCCCCCCCC` [decane] + CCCCn1cc[n+](C)c1.N#CN=C=[N-] is higher in activity coefficient: 23.7 ± 1.6 for the first, 239 ± 16 for the second.

Same assay, conditions: 358.15 K; Liquid; Chromatography; x1 = 0

First: Cc1ccccc1C [1,2-dimethylbenzene] + CCCCn1cc[n+](C)c1.N#CN=C=[N-]
Second: Cc1cccc(C)c1 [1,3-dimethylbenzene] + CCCCn1cc[n+](C)c1.N#CN=C=[N-]
The activity coefficient of the first is lower: 4.42 ± 0.3 for the first, 5.38 ± 0.37 for the second.

Compared with `Cc1ccc(C)cc1` [1,4-dimethylbenzene] + CCCCn1cc[n+](C)c1.N#CN=C=[N-], `CC(C)CO` [2-methyl-1-propanol] + CCCCn1cc[n+](C)c1.N#CN=C=[N-] is lower in activity coefficient: 5.18 ± 0.35 for the first, 1.09 ± 0.07 for the second.

Going from `C1COCCO1` [1,4-dioxane] + CCCCn1cc[n+](C)c1.N#CN=C=[N-] to `C=CCCCCCCCC` [1-decene] + CCCCn1cc[n+](C)c1.N#CN=C=[N-], the activity coefficient rises from 1.36 ± 0.09 to 115 ± 8.

Compared with `C=CCCCCC` [1-heptene] + CCCCn1cc[n+](C)c1.N#CN=C=[N-], `C=CCCC` [1-pentene] + CCCCn1cc[n+](C)c1.N#CN=C=[N-] is lower in activity coefficient: 37.3 ± 2.6 for the first, 17.3 ± 1.2 for the second.

Compared with `C#CCCCCC` [1-heptyne] + CCCCn1cc[n+](C)c1.N#CN=C=[N-], `C#CCCCCCC` [1-octyne] + CCCCn1cc[n+](C)c1.N#CN=C=[N-] is higher in activity coefficient: 9.77 ± 0.67 for the first, 14.4 ± 1 for the second.

First: C#CCCCC [1-hexyne] + CCCCn1cc[n+](C)c1.N#CN=C=[N-]
Second: C#CCCC [1-pentyne] + CCCCn1cc[n+](C)c1.N#CN=C=[N-]
The activity coefficient of the first is higher: 6.85 ± 0.47 for the first, 4.6 ± 0.3 for the second.

First: CCC[N+](=O)[O-] [1-nitropropane] + CCCCn1cc[n+](C)c1.N#CN=C=[N-]
Second: CCC(C)(C)C [2,2-dimethylbutane] + CCCCn1cc[n+](C)c1.N#CN=C=[N-]
The activity coefficient of the first is lower: 1.45 ± 0.1 for the first, 47.4 ± 3.2 for the second.

Compared with `CC(C)CC(C)(C)C` [2,2,4-trimethylpentane] + CCCCn1cc[n+](C)c1.N#CN=C=[N-], `CCOC(C)(C)C` [2-ethoxy-2-methylpropane] + CCCCn1cc[n+](C)c1.N#CN=C=[N-] is lower in activity coefficient: 92.8 ± 6.4 for the first, 19.3 ± 1.3 for the second.

First: CCC(C)(C)OC [2-methoxy-2-methylbutane] + CCCCn1cc[n+](C)c1.N#CN=C=[N-]
Second: COC(C)(C)C [2-methoxy-2-methylpropane] + CCCCn1cc[n+](C)c1.N#CN=C=[N-]
The activity coefficient of the first is higher: 12.2 ± 0.8 for the first, 8.46 ± 0.58 for the second.
